According to the supplement of paper PMC10883282:
± gives the standard deviation of the averaged measurements.

Assays:
Experiment in all cases: relative viability vs DMSO control (72 h) (fraction); higher = more viable cells
SK-ES-1 = system: SK-ES-1
Procedure, shortened: (§1)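 ATPLite readings, expressed as percent growth and averaged over up to triplicate wells, provided relative viability. Before reading, sarcoma cell lines seeded in 384-well plates to reach 80–90% confluence received 2.5 µl of serially diluted compound after 24 h, from source plates of 10 mM to 0.0002 mM. Plates were held 72 h at 37 °C, 5% CO2, with 0.1% DMSO as vehicle and a 5 µM positive control. The data were rescaled to 1 for full and 0 for none.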

G401 = system: G401
Procedure, shortened: as §1

A204 = system: A204
Procedure, shortened: as §1

SW684 = system: SW684
Procedure, shortened: as §1

MES-SA = system: MES-SA
Procedure, shortened: as §1

VA-ES-BJ = system: VA-ES-BJ
Procedure, shortened: as §1

SK-LMS-1 = system: SK-LMS-1
Procedure, shortened: as §1

RD = system: RD
Procedure, shortened: as §1

KHOS-NP = system: KHOS-NP
Procedure, shortened: as §1

SYO-1 = system: SYO-1
Procedure, shortened: as §1

HS729 = system: HS729
Procedure, shortened: as §1

SW872 = system: SW872
Procedure, shortened: as §1

Molecule Cc1cccc(-c2[nH]c(CNc3ccccc3F)nc2-c2ccc3ncnn3c2)n1 [Vactosertib] has a relative viability (SK-ES-1; 0.00017 µM) of 0.986 ± 0.035, a relative viability (SK-ES-1; 0.00051 µM) of 0.97 ± 0.018 and a relative viability (SK-ES-1; 0.00152 µM) of 0.98 ± 0.029. It also gave a relative viability (SK-ES-1; 0.00457 µM) of 0.974 ± 0.028, a relative viability (SK-ES-1; 0.01372 µM) of 1.02 ± 0.034 and a relative viability (SK-ES-1; 0.04115 µM) of 1 ± 0.029. It also gave a relative viability (SK-ES-1; 0.1235 µM) of 1.04 ± 0.059, a relative viability (SK-ES-1; 0.3704 µM) of 1.02 ± 0.024 and a relative viability (SK-ES-1; 1.111 µM) of 0.964 ± 0.08. For the same molecule, the relative viability (SK-ES-1; 3.333 µM) was 1.01 ± 0.013, the relative viability (SK-ES-1; 10 µM) was 0.898 ± 0.066 and the relative viability (G401; 0.00017 µM) was 0.942 ± 0.043. The relative viability (G401; 0.00051 µM) was 0.937 ± 0.038, the relative viability (G401; 0.00152 µM) was 0.969 ± 0.029 and the relative viability (G401; 0.00457 µM) was 0.984 ± 0.038. For the same molecule, the relative viability (G401; 0.01372 µM) was 0.97 ± 0.065, the relative viability (G401; 0.04115 µM) was 0.937 ± 0.039 and the relative viability (G401; 0.1235 µM) was 0.9496 ± 0.0058. For the same molecule, the relative viability (G401; 0.3704 µM) was 0.978 ± 0.034, the relative viability (G401; 1.111 µM) was 0.9638 ± 0.0026 and the relative viability (G401; 3.333 µM) was 0.967 ± 0.058. The relative viability (G401; 10 µM) was 0.923 ± 0.043, the relative viability (A204; 0.00017 µM) was 1.02 ± 0.052 and the relative viability (A204; 0.00051 µM) was 1.02 ± 0.031. It also gave a relative viability (A204; 0.00152 µM) of 1.02 ± 0.014, a relative viability (A204; 0.00457 µM) of 1.01 ± 0.031 and a relative viability (A204; 0.01372 µM) of 1.02 ± 0.082. The relative viability (A204; 0.04115 µM) was 1.03 ± 0.053, the relative viability (A204; 0.1235 µM) was 0.983 ± 0.048 and the relative viability (A204; 0.3704 µM) was 1.04 ± 0.044. It also gave a relative viability (A204; 1.111 µM) of 1.03 ± 0.088, a relative viability (A204; 3.333 µM) of 0.953 ± 0.012 and a relative viability (A204; 10 µM) of 0.822 ± 0.08. It also gave a relative viability (SW684; 0.00017 µM) of 1.15 ± 0.046, a relative viability (SW684; 0.00051 µM) of 1.08 ± 0.037 and a relative viability (SW684; 0.00152 µM) of 1.08 ± 0.039. For the same molecule, the relative viability (SW684; 0.00457 µM) was 1.1 ± 0.071, the relative viability (SW684; 0.01372 µM) was 1.07 ± 0.038 and the relative viability (SW684; 0.04115 µM) was 1.06 ± 0.064. For the same molecule, the relative viability (SW684; 0.1235 µM) was 1.07 ± 0.011, the relative viability (SW684; 0.3704 µM) was 1.04 ± 0.015 and the relative viability (SW684; 1.111 µM) was 1.08 ± 0.026. For the same molecule, the relative viability (SW684; 3.333 µM) was 1.07 ± 0.07, the relative viability (SW684; 10 µM) was 1.11 ± 0.018 and the relative viability (MES-SA; 0.00017 µM) was 0.892 ± 0.03. It also gave a relative viability (MES-SA; 0.00051 µM) of 0.881 ± 0.0083, a relative viability (MES-SA; 0.00152 µM) of 0.885 ± 0.04 and a relative viability (MES-SA; 0.00457 µM) of 0.866 ± 0.032. The relative viability (MES-SA; 0.01372 µM) was 0.877 ± 0.022, the relative viability (MES-SA; 0.04115 µM) was 0.901 ± 0.028 and the relative viability (MES-SA; 0.1235 µM) was 0.894 ± 0.029. The relative viability (MES-SA; 0.3704 µM) was 0.897 ± 0.0097, the relative viability (MES-SA; 1.111 µM) was 0.842 ± 0.038 and the relative viability (MES-SA; 3.333 µM) was 0.873 ± 0.013. The relative viability (MES-SA; 10 µM) was 0.861 ± 0.031, the relative viability (VA-ES-BJ; 0.00017 µM) was 1 ± 0.066 and the relative viability (VA-ES-BJ; 0.00051 µM) was 1 ± 0.015. It also gave a relative viability (VA-ES-BJ; 0.00152 µM) of 1.006 ± 0.0055, a relative viability (VA-ES-BJ; 0.00457 µM) of 1.02 ± 0.015 and a relative viability (VA-ES-BJ; 0.01372 µM) of 1.026 ± 0.0052. It also gave a relative viability (VA-ES-BJ; 0.04115 µM) of 1.04 ± 0.052, a relative viability (VA-ES-BJ; 0.1235 µM) of 1.038 ± 0.0089 and a relative viability (VA-ES-BJ; 0.3704 µM) of 1.08 ± 0.019. For the same molecule, the relative viability (VA-ES-BJ; 1.111 µM) was 1.11 ± 0.033, the relative viability (VA-ES-BJ; 3.333 µM) was 1.11 ± 0.029 and the relative viability (VA-ES-BJ; 10 µM) was 1.11 ± 0.018. For the same molecule, the relative viability (SK-LMS-1; 0.00017 µM) was 0.968 ± 0.026, the relative viability (SK-LMS-1; 0.00051 µM) was 0.963 ± 0.052 and the relative viability (SK-LMS-1; 0.00152 µM) was 0.981 ± 0.057. The relative viability (SK-LMS-1; 0.00457 µM) was 0.982 ± 0.063, the relative viability (SK-LMS-1; 0.01372 µM) was 0.984 ± 0.02 and the relative viability (SK-LMS-1; 0.04115 µM) was 0.978 ± 0.019. For the same molecule, the relative viability (SK-LMS-1; 0.1235 µM) was 0.95 ± 0.016, the relative viability (SK-LMS-1; 0.3704 µM) was 0.918 ± 0.064 and the relative viability (SK-LMS-1; 1.111 µM) was 0.988 ± 0.032. It also gave a relative viability (SK-LMS-1; 3.333 µM) of 0.992 ± 0.025, a relative viability (SK-LMS-1; 10 µM) of 0.96 ± 0.019 and a relative viability (RD; 0.00017 µM) of 1.07 ± 0.05. For the same molecule, the relative viability (RD; 0.00051 µM) was 1.06 ± 0.057, the relative viability (RD; 0.00152 µM) was 1.06 ± 0.026 and the relative viability (RD; 0.00457 µM) was 1.09 ± 0.019. The relative viability (RD; 0.01372 µM) was 1.07 ± 0.017, the relative viability (RD; 0.04115 µM) was 1.09 ± 0.036 and the relative viability (RD; 0.1235 µM) was 1.07 ± 0.07. It also gave a relative viability (RD; 0.3704 µM) of 1.09 ± 0.019, a relative viability (RD; 1.111 µM) of 1.09 ± 0.031 and a relative viability (RD; 3.333 µM) of 1.07 ± 0.054. It also gave a relative viability (RD; 10 µM) of 1.09 ± 0.046, a relative viability (KHOS-NP; 0.00017 µM) of 1.05 ± 0.045 and a relative viability (KHOS-NP; 0.00051 µM) of 1.05 ± 0.032. It also gave a relative viability (KHOS-NP; 0.00152 µM) of 1.05 ± 0.056, a relative viability (KHOS-NP; 0.00457 µM) of 1.04 ± 0.047 and a relative viability (KHOS-NP; 0.01372 µM) of 1.03 ± 0.051. It also gave a relative viability (KHOS-NP; 0.04115 µM) of 1.02 ± 0.029, a relative viability (KHOS-NP; 0.1235 µM) of 1.046 ± 0.0091 and a relative viability (KHOS-NP; 0.3704 µM) of 1.05 ± 0.029. For the same molecule, the relative viability (KHOS-NP; 1.111 µM) was 1.05 ± 0.025, the relative viability (KHOS-NP; 3.333 µM) was 1.05 ± 0.02 and the relative viability (KHOS-NP; 10 µM) was 1.011 ± 0.0063. It also gave a relative viability (SYO-1; 0.00017 µM) of 0.9167 ± 0.0083, a relative viability (SYO-1; 0.00051 µM) of 0.925 ± 0.017 and a relative viability (SYO-1; 0.00152 µM) of 0.929 ± 0.015. For the same molecule, the relative viability (SYO-1; 0.00457 µM) was 0.895 ± 0.023, the relative viability (SYO-1; 0.01372 µM) was 0.894 ± 0.036 and the relative viability (SYO-1; 0.04115 µM) was 0.872 ± 0.04. For the same molecule, the relative viability (SYO-1; 0.1235 µM) was 0.86 ± 0.031, the relative viability (SYO-1; 0.3704 µM) was 0.808 ± 0.037 and the relative viability (SYO-1; 1.111 µM) was 0.773 ± 0.023. It also gave a relative viability (SYO-1; 3.333 µM) of 0.697 ± 0.025, a relative viability (SYO-1; 10 µM) of 0.591 ± 0.04 and a relative viability (HS729; 0.00017 µM) of 0.964 ± 0.013. The relative viability (HS729; 0.00051 µM) was 0.969 ± 0.016, the relative viability (HS729; 0.00152 µM) was 0.938 ± 0.023 and the relative viability (HS729; 0.00457 µM) was 0.962 ± 0.015. The relative viability (HS729; 0.01372 µM) was 0.928 ± 0.011, the relative viability (HS729; 0.04115 µM) was 0.939 ± 0.025 and the relative viability (HS729; 0.1235 µM) was 0.882 ± 0.03. For the same molecule, the relative viability (HS729; 0.3704 µM) was 0.849 ± 0.037, the relative viability (HS729; 1.111 µM) was 0.787 ± 0.034 and the relative viability (HS729; 3.333 µM) was 0.73 ± 0.027. The relative viability (HS729; 10 µM) was 0.68 ± 0.04, the relative viability (SW872; 0.00017 µM) was 0.928 ± 0.04 and the relative viability (SW872; 0.00051 µM) was 0.938 ± 0.055. The relative viability (SW872; 0.00152 µM) was 0.932 ± 0.068, the relative viability (SW872; 0.00457 µM) was 0.958 ± 0.047 and the relative viability (SW872; 0.01372 µM) was 0.979 ± 0.027. For the same molecule, the relative viability (SW872; 0.04115 µM) was 0.95 ± 0.049, the relative viability (SW872; 0.1235 µM) was 0.969 ± 0.024 and the relative viability (SW872; 0.3704 µM) was 0.999 ± 0.043. For the same molecule, the relative viability (SW872; 1.111 µM) was 1.06 ± 0.02, the relative viability (SW872; 3.333 µM) was 1.062 ± 0.01 and the relative viability (SW872; 10 µM) was 1.02 ± 0.018.
